Results on seven molecules are retold here after patent US11384381B2, “Reaction accelerating agent” (Kikkoman Corporation, priority 2016, dated 2022).

For test [1], the system named is fructosyl peptide oxidase (FPOX-CET). Briefly: Fructosyl valyl histidine detection reaction completed with excess fructosyl peptide oxidase (Example 6). Format: biochemical. Conditions: 0.04% (w/v) compound, 4.8 U/ml FPOX-CET (excess), 32 μM fructosyl valyl histidine, pH 7.0, 37° C.; for ΔA9 min: change in A694-A751 9 minutes after mixing; for ΔA10 min: change in A694-A751 10 minutes after mixing, defined as ΔA100%. On the procedure: In this Example the amount of change in absorbance is determined when the detection reaction of the substrate fructosyl valyl histidine was completed using an excess amount of fructosyl peptide oxidase (FPOX-CET), which is an oxidase.
A reagent for fructosyl valyl histidine measurement having the following composition was prepared, and the measurement of fructosyl valyl histidine using fructosyl peptide oxidase was carried out using Bio Majesty JCA-BM1650 (manufactured by JEOL Ltd.).
32 μM fructosyl valyl histidine (manufactured by Kikkoman Biochemifa Company)
30 mM MOPS-NaOH buffer solution, pH 7.0
0.2% (v/v) Triton X-100 (manufactured by Wako Pure Chemical Industries, Ltd.)
(§1) 10 U/ml peroxidase PEO-301 (Toyobo Co., Ltd.)
0.023 mM 10-(carboxymethylaminocarbonyl)-3,7-bis(dimethylamino)phenothiazine sodium (DA-67, manufactured by Wako Pure Chemical Industries, Ltd.)
(§2) 0.04% (w/v) of the compound of Comparative Example 2, any one compound of the present invention, or compound-free (Comparative Example 1) ion-exchange water as shown in Table 1
10 mM MOPS-NaOH buffer solution, pH 7.0
4.8 U/ml FPOX-CET (manufactured by Kikkoman Biochemifa Company)
8 μl of the sample was added to 96 μl of the first reagent-B, and the mixture was incubated at 37° C. for 5 minutes. Then, 24 μl of the second reagent-C was added thereto, and the quantitative reaction of hydrogen peroxide resulting from the oxidation of fructosyl valyl histidine was allowed to progress at 37° C. for 5 minutes. The absorbance (A694 and A751) of the reaction solution for light at wavelengths of 694 nm and 751 nm was measured over time for 10 minutes after the mixing of the sample with the first reagent-B to determine the value of subtraction of A751 from A694, i.e., the value A694/751. Subsequently, ΔA was calculated by subtracting, from […], the value of (104/128) times A694/751 4.8 minutes after the mixing of the sample with the first reagent-B. Incidentally, 4.8 minutes after the mixing of the sample with the first reagent-B represents the time immediately before the addition of the second reagent-C. ΔA 9 minutes and 10 minutes after the mixing of the diluted sample with the first reagent-B (ΔA9min and ΔA10min) are shown in Table 3.
In other words, it can be recognized that the quantitative reaction of fructosyl valyl histidine, i.e., the quantitative reaction of hydrogen peroxide resulting from the oxidation of fructosyl valyl histidine, was completed in 10 minutes after the mixing of the diluted sample with the first reagent-B. Accordingly, in Examples 6 and 7, ΔA10min in each Comparative Example or the present invention was defined as ΔA when 100% of the quantitative reaction of […] progressed under each condition (ΔA100%).

Test [2] deals with fructosyl amino acid oxidase (FAOD-E). The test can be described thus: Fructosyl valine detection reaction completed with excess fructosyl amino acid oxidase (Example 8). As to conditions: 0.04% (w/v) compound, 21.4 U/ml FAOD-E (excess), 32 μM fructosyl valine, pH 8.0, 37° C.; for ΔA9 min: change in A694-A751 9 minutes after mixing; for ΔA10 min: change in A694-A751 10 minutes after mixing, defined as ΔA100%. The class given is biochemical. How it is done: In this Example, the amount of change in absorbance is determined when the detection reaction of the substrate fructosyl valine was completed using an excess amount of fructosyl amino acid oxidase (FAOD-E), which is an oxidase.
A reagent for fructosyl valine measurement having the following composition was prepared, and the measurement of fructosyl valine using fructosyl amino acid oxidase was carried out using Bio Majesty JCA-BM 1650 (manufactured by JEOL Ltd.).
32 μM fructosyl valine (manufactured by Kikkoman Biochemifa Company)
30 mM MOPS-NaOH buffer solution, pH 8.0
0.2% (v/v) NYMEEN F-215 (manufactured by NOF Corp.)
as §1
0.023 mM 10-(carboxymethylaminocarbonyl)-3,7-bis(dimethylamino)phenothiazine sodium
(DA-67, manufactured by Wako Pure Chemical Industries, Ltd.)
as §2
10 mM MOPS-NaOH buffer solution, pH 8.0
21.4 U/ml FAOD-E (manufactured by Kikkoman Biochemifa Company)
8 μl of the sample was added to 96 μl of the first reagent-C, and the mixture was incubated at 37° C. for 5 minutes. Then, 24 μl of the second reagent-E was added thereto, and the quantitative reaction of hydrogen peroxide resulting from the oxidation of fructosyl valine was allowed to progress at 37° C. for 5 minutes. The absorbance ([…] and A751) of the reaction solution for light at wavelengths of 694 nm and 751 nm was measured over time for 10 minutes after the mixing of the sample with the first reagent-C to determine the value of subtraction of A751 from A694, i.e., the value A694/751. Subsequently, ΔA was calculated by subtracting, from A694/751, the value of (104/128) times A694/751 4.8 minutes after the mixing of the sample with the first reagent-C. Incidentally, 4.8 minutes after the mixing of the sample with the first reagent-C represents the time immediately before the addition of the second reagent-E. ΔA 9 minutes and 10 minutes after the mixing of the diluted sample with the first reagent-C (ΔA9min and ΔA10min) are shown in Table 5.
In other words, it can be recognized that the quantitative reaction of fructosyl valine, i.e., the quantitative reaction of hydrogen peroxide resulting from the oxidation of fructosyl valine, was completed in 10 minutes after the mixing of the diluted sample with the first reagent-C. Accordingly, in Examples 8 and 9, ΔA10min in each Comparative Example or the present invention was defined as ΔA when 100% of the quantitative reaction of HbA1c progressed under each condition (ΔA100%).

As for `Cc1nn(-c2cc(S(=O)(=O)[O-])ccc2Cl)c(O)c1N=Nc1ccccc1.[Na+]` [Acid Yellow 34], in test [1], the ΔA9 min is given as 0.032 and the ΔA10 min was determined as 0.033.
Turning to `O=C([O-])c1cc(N=Nc2cccc([N+](=O)[O-])c2)ccc1O.[Na+]` [Alizarin Yellow GG], in test [2], the ΔA9 min was determined as 0.044 and the ΔA10 min is recorded as 0.046.
Take `O=C(O)c1cc(N=Nc2ccc3cc(S(=O)(=O)O)ccc3c2)ccc1O.[Na]` [Chrome Yellow]: in test [1], the ΔA9 min came to 0.064 and the ΔA10 min worked out at 0.064. In test [2], the ΔA9 min amounted to 0.066 and the ΔA10 min worked out at 0.067.
Consider `COc1cc(N=Nc2cccc(S(=O)(=O)[O-])c2)ccc1NC(=O)Nc1ccc(N=Nc2ccc(O)c(C(=O)[O-])c2)cc1.[Na+].[Na+]` [Direct Yellow 44], for which, in test [1], the ΔA9 min stood at 0.043 and the ΔA10 min amounted to 0.043.
As to `COc1cc(N=Nc2ccc(N)cc2)c(C)cc1N` [Disperse Diazo Black 3BF], in test [2], the ΔA9 min worked out at 0.062 and the ΔA10 min was 0.061.
In test [2], `O=C([O-])c1cc(N=Nc2ccc([N+](=O)[O-])cc2)ccc1O.[Na+]` [Mordant Orange 1] displayed a ΔA9 min of 0.049 and a ΔA10 min of 0.051.
Regarding Xylene Fast Yellow 2G, in test [1], the ΔA9 min stood at 0.027 and the ΔA10 min turned out to be 0.027.
